Measurements reported in PMC10507085, “Pharmacological inhibition of TBK1/IKKε blunts immunopathology in a murine model of SARS-CoV-2 infection” (Nature Communications, 2023).

Experiments:
Assay in all cases: biochemical
Design in all cases: KINOMEscan competition binding, DNA-tagged kinase against immobilised ligand, qPCR read-out
Conditions in all cases: read-out: Percent Control
TSSK1B = TSSK1B (Homo sapiens, UniProt Q9BXA7)
OXSR1 = OXSR1 (Homo sapiens, UniProt O95747)
PRKX = PRKX (Homo sapiens, UniProt P51817)
STK35 = STK35 (Homo sapiens, UniProt Q8TDR2)
NEK10 = NEK10 (Homo sapiens, UniProt Q6ZWH5)
INSR = INSR (Homo sapiens, UniProt P06213)
CABC1 = biological target: T1, CABC1 (Homo sapiens, UniProt Q8NI60)
T1 construct: gene COQ8A

MINK1 = MINK1 (Homo sapiens, UniProt Q8N4C8)
CAMK1 = CAMK1 (Homo sapiens, UniProt Q14012)
RPS6KB1 = RPS6KB1 (Homo sapiens, UniProt P23443)
CSNK1A1L = CSNK1A1L (Homo sapiens, UniProt Q8N752)
STK38 = STK38 (Homo sapiens, UniProt Q15208)
ERBB4 = ERBB4 (Homo sapiens, UniProt Q15303)
[1] = biological target: T2, RSK1(Kin.Dom.2-C-terminal) (Homo sapiens, UniProt Q15418)
T2 construct: gene RPS6KA1; Kin.Dom.2 C-terminal

ACVR1B = ACVR1B (Homo sapiens, UniProt P36896)
HIPK4 = HIPK4 (Homo sapiens, UniProt Q8NE63)
SNRK = SNRK (Homo sapiens, UniProt Q9NRH2)
PIP4K2B = PIP4K2B (Homo sapiens, UniProt P78356)
CDC2L2 = biological target: T3, CDC2L2 (Homo sapiens, UniProt Q9UQ88)
T3 construct: gene CDK11A

MAP3K14 = MAP3K14 (Homo sapiens, UniProt Q99558)

Sequence of ACVR1B (P36896 whole entry): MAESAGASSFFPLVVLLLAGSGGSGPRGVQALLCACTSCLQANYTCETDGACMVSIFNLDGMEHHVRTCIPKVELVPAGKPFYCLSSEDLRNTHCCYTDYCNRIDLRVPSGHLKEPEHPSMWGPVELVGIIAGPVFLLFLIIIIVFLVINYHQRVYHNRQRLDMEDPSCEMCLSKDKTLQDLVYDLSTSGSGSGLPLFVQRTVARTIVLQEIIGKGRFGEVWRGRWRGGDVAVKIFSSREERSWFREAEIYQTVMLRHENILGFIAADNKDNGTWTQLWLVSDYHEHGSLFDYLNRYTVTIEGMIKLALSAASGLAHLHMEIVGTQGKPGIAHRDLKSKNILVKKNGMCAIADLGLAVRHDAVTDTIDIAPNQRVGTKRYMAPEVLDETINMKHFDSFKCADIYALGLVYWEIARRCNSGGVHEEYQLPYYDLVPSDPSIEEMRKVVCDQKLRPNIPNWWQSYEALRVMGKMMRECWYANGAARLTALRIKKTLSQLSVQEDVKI
Sequence of OXSR1 (O95747 whole entry): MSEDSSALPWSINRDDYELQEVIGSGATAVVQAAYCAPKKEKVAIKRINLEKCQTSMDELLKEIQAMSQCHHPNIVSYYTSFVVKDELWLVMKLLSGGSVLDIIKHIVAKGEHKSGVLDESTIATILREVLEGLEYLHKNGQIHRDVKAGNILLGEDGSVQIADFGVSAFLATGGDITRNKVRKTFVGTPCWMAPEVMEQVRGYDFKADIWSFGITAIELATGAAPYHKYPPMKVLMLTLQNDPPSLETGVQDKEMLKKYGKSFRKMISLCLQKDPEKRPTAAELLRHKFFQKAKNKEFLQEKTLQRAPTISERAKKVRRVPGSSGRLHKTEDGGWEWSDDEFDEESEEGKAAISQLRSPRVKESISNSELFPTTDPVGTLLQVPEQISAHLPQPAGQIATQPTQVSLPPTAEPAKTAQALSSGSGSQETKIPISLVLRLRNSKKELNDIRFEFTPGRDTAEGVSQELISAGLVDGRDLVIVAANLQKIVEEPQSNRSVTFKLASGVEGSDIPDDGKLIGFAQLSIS
Sequence of INSR (P06213 whole entry): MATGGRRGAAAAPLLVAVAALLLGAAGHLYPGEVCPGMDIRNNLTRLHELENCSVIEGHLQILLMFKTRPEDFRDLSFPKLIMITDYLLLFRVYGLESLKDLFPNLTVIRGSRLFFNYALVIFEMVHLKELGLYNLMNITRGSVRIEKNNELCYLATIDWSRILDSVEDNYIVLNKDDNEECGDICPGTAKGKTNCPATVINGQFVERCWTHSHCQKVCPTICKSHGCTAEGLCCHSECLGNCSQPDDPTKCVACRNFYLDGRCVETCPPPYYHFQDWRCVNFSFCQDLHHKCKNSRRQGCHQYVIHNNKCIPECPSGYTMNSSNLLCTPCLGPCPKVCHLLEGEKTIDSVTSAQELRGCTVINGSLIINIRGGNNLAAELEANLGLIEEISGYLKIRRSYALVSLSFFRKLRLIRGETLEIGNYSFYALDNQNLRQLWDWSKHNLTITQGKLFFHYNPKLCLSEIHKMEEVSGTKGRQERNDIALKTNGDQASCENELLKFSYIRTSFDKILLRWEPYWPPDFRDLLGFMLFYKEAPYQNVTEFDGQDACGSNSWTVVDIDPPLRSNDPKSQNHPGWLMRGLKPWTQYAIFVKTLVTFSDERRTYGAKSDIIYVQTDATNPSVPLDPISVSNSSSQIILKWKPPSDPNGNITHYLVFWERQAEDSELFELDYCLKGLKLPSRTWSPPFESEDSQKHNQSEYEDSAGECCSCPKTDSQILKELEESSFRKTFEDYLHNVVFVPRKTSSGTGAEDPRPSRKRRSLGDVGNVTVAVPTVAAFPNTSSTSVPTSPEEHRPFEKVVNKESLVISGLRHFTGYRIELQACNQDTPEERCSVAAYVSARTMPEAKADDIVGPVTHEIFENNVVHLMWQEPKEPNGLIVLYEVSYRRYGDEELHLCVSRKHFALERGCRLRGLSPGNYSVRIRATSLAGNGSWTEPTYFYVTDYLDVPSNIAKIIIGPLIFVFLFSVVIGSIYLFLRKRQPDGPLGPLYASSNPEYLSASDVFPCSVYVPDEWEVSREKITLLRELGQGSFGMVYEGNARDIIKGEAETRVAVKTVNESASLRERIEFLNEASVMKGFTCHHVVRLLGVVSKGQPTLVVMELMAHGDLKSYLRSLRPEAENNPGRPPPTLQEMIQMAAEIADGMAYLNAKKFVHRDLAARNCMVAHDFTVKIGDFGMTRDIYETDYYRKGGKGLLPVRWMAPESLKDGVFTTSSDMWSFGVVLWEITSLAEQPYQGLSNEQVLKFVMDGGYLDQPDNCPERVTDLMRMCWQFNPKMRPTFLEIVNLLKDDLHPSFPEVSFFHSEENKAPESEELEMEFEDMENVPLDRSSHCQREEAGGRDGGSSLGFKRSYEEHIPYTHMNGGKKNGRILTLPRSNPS
T2 sequence (Q15418 whole entry): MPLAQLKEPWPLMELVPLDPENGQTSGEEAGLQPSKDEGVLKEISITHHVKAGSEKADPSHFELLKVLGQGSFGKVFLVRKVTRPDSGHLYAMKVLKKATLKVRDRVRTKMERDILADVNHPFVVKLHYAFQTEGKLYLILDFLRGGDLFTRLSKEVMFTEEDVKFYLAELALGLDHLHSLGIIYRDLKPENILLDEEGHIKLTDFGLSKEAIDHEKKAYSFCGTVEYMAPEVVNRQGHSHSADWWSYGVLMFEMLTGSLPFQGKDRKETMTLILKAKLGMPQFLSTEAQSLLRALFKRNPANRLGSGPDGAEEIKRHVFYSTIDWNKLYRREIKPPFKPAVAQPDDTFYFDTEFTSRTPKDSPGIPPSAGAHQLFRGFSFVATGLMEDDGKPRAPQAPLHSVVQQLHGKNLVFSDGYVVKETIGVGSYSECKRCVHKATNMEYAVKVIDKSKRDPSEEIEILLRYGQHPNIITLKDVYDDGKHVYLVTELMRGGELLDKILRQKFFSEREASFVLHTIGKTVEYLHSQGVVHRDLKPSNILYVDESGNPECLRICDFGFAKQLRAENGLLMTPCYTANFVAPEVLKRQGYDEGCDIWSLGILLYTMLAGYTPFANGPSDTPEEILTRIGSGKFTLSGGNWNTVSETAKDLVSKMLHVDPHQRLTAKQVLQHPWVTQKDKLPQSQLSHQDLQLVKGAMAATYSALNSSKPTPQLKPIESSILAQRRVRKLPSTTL
Sequence of HIPK4 (Q8NE63 whole entry): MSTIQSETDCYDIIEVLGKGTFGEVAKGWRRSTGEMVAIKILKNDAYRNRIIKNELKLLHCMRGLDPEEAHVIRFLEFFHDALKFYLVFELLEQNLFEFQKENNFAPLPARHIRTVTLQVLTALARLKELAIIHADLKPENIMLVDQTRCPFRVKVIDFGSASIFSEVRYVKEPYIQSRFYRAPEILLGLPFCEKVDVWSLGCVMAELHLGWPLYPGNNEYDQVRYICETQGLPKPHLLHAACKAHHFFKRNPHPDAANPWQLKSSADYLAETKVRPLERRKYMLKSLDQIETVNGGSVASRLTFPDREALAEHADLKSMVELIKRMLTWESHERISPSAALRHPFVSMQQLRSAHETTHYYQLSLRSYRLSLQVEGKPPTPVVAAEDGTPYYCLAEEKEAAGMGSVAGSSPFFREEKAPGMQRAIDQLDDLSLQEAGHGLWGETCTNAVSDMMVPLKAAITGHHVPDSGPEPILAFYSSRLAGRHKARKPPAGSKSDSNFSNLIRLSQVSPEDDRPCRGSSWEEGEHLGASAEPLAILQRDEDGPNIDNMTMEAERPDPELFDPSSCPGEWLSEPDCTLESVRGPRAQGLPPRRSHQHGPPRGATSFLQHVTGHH
Sequence of PIP4K2B (P78356 whole entry): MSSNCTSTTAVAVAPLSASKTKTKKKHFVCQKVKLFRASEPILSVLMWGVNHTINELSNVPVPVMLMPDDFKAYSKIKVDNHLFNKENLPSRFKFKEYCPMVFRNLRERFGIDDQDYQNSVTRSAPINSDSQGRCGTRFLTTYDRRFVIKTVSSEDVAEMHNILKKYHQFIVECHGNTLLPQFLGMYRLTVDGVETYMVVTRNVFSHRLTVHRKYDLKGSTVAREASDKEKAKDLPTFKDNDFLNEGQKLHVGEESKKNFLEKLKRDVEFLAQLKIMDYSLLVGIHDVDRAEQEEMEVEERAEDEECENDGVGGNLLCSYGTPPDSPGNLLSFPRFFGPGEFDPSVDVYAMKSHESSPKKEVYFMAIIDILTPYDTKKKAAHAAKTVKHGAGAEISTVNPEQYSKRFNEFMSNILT
Sequence of CAMK1 (Q14012 whole entry): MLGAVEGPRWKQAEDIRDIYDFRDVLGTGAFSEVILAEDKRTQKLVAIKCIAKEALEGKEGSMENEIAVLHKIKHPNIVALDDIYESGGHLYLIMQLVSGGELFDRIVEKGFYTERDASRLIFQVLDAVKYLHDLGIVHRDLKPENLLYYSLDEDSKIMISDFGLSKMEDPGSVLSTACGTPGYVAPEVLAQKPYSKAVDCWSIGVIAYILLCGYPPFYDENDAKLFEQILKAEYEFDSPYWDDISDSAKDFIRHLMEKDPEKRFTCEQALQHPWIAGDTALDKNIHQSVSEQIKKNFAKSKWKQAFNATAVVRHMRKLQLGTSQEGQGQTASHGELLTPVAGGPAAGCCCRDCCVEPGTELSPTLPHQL
Sequence of STK38 (Q15208 whole entry): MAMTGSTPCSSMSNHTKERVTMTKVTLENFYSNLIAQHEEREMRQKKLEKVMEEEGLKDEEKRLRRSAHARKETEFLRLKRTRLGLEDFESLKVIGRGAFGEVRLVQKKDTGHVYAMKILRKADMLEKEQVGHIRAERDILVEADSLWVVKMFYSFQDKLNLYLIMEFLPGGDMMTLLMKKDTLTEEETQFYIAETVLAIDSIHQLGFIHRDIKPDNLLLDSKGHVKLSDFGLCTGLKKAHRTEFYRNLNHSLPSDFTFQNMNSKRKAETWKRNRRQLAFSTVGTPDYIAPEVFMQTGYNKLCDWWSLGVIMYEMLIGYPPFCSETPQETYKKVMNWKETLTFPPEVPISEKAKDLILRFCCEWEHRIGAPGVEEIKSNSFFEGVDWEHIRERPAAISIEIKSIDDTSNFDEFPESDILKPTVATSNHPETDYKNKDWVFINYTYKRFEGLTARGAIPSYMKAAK

Oc1ccc(C2=Cc3ccc(O)cc3OC2)cc1 [compound 1, idronoxil]
remaining binding at 10 µM (TSSK1B): 87%
remaining binding at 10 µM (OXSR1): 75%
remaining binding at 10 µM (PRKX): 88%
remaining binding at 10 µM (STK35): 88%
remaining binding at 10 µM (NEK10): 69%
remaining binding at 10 µM (INSR): 71%
remaining binding at 10 µM (CABC1): 78%
remaining binding at 10 µM (MINK1): 38%
remaining binding at 10 µM (CAMK1): 96%
remaining binding at 10 µM (RPS6KB1): 84%
remaining binding at 10 µM (CSNK1A1L): 96%
remaining binding at 10 µM (STK38): 68%
remaining binding at 10 µM (ERBB4): 91%
remaining binding at 10 µM [1]: 69%
remaining binding at 10 µM (ACVR1B): 87%
remaining binding at 10 µM (HIPK4): 75%
remaining binding at 10 µM (SNRK): 81%
remaining binding at 10 µM (PIP4K2B): 100%
remaining binding at 10 µM (CDC2L2): 69%
remaining binding at 10 µM (MAP3K14): 60%
